Laboratory results from patent publication EP0465716A1, “Optically active thiazetoquino-line-3-carboxylic acid compound, method for preparation thereof, and a pharmaceutical composition comprising the same” (priority 1990, dated 1992).
≈ marks a conversion by molar mass, not a printed value.

Experiments:
[1] = system: Klebsiella pneumoniae PCI-602; assay: MIC, twofold agar dilution method (standard laboratory strain); type: cell-based; conditions: PCI602; Klebsiella pneumoniae PCI-602, Gram -; 10^6 cfu/ml; 18 hrs at 37 °C; read-out: MIC
Experimental: (§1) Minimum inhibitory concentrations (MIC) of test compounds were determined by the twofold agar dilution method (Chemotherapy, 29(1), 76(1981)). Overnight cultures in Mueller-Hinton broth were suspended by buffered saline gelatin. One loopful of the bacterial suspension (10⁶ or 10⁸ colony-forming units/ml) was incubated onto the plates containing test compounds. The plates were incubated for 18 hrs at 37 °C. The MIC was defined by the lowest concentration of the drug that inhibited visible growth of bacteria.

[2] = system: Staphylococcuss aureus HPC 292; assay: MIC, twofold agar dilution method (clinically isolated strain); type: cell-based; conditions: Staphylococcuss aureus HPC 292, Gram +; 10^6 cfu/ml; 18 hrs at 37 °C
Experimental: as §1, with “Overnight” for “Minimum inhibitory concentrations (MIC) of test compounds were determined by the twofold agar dilution method (Chemotherapy, 29(1), 76(1981)). Overnight”

[3] = system: Enterobacter cloacae HNR 1946; assay: as above; type: cell-based; conditions: HNR1946; Enterobacter cloacae HNR 1946, Gram -; 10^6 cfu/ml; 18 hrs at 37 °C
Experimental: as §1, with “Overnight” for “Minimum inhibitory concentrations (MIC) of test compounds were determined by the twofold agar dilution method (Chemotherapy, 29(1), 76(1981)). Overnight”

[4] = system: Acinetobacter calcoaceticus HNR 916; assay: as above; type: cell-based; conditions: HNR916; Acinetobacter calcoaceticus HNR 916, Gram -; 10^6 cfu/ml; 18 hrs at 37 °C
Experimental: as §1, with “Overnight” for “Minimum inhibitory concentrations (MIC) of test compounds were determined by the twofold agar dilution method (Chemotherapy, 29(1), 76(1981)). Overnight”

[5] = system: Enterobacter cloacae HNR 1941; assay: as above; type: cell-based; conditions: HNR1941; Enterobacter cloacae HNR 1941, Gram -; 10^6 cfu/ml; 18 hrs at 37 °C
Experimental: as §1, with “Overnight” for “Minimum inhibitory concentrations (MIC) of test compounds were determined by the twofold agar dilution method (Chemotherapy, 29(1), 76(1981)). Overnight”

[6] = system: Enterococcus faecalis HPC 984; assay: as above; type: cell-based; conditions: HPC984; Enterococcus faecalis HPC 984, Gram +; 10^6 cfu/ml; 18 hrs at 37 °C
Experimental: as §1, with “Overnight” for “Minimum inhibitory concentrations (MIC) of test compounds were determined by the twofold agar dilution method (Chemotherapy, 29(1), 76(1981)). Overnight”

[7] = system: Staphylococcuss aureus HPC 308; assay: as above; type: cell-based; conditions: Staphylococcuss aureus HPC 308, Gram +; 10^6 cfu/ml; 18 hrs at 37 °C
Experimental: as §1, with “Overnight” for “Minimum inhibitory concentrations (MIC) of test compounds were determined by the twofold agar dilution method (Chemotherapy, 29(1), 76(1981)). Overnight”

[8] = system: Enterococcus faecalis HPC 975; assay: as above; type: cell-based; conditions: HPC975; Enterococcus faecalis HPC 975, Gram +; 10^6 cfu/ml; 18 hrs at 37 °C
Experimental: as §1, with “Overnight” for “Minimum inhibitory concentrations (MIC) of test compounds were determined by the twofold agar dilution method (Chemotherapy, 29(1), 76(1981)). Overnight”

[9] = system: Klebsiella pneumoniae HNR 828; assay: as above; type: cell-based; conditions: HNR828; Klebsiella pneumoniae HNR 828, Gram -; 10^6 cfu/ml; 18 hrs at 37 °C
Experimental: as §1, with “Overnight” for “Minimum inhibitory concentrations (MIC) of test compounds were determined by the twofold agar dilution method (Chemotherapy, 29(1), 76(1981)). Overnight”

[10] = system: Pseudomonas aeruginosa HNR 1537; assay: as above; type: cell-based; conditions: HNR1537; Pseudomonas aeruginosa HNR 1537, Gram -; 10^6 cfu/ml; 18 hrs at 37 °C
Experimental: as §1, with “Overnight” for “Minimum inhibitory concentrations (MIC) of test compounds were determined by the twofold agar dilution method (Chemotherapy, 29(1), 76(1981)). Overnight”

[11] = system: Serratia marcescens HNR 1544; assay: as above; type: cell-based; conditions: HNR1544; Serratia marcescens HNR 1544, Gram -; 10^6 cfu/ml; 18 hrs at 37 °C
Experimental: as §1, with “Overnight” for “Minimum inhibitory concentrations (MIC) of test compounds were determined by the twofold agar dilution method (Chemotherapy, 29(1), 76(1981)). Overnight”

[12] = system: Enterococcus faecalis HPC 948; assay: as above; type: cell-based; conditions: HPC948; Enterococcus faecalis HPC 948, Gram +; 10^6 cfu/ml; 18 hrs at 37 °C
Experimental: as §1, with “Overnight” for “Minimum inhibitory concentrations (MIC) of test compounds were determined by the twofold agar dilution method (Chemotherapy, 29(1), 76(1981)). Overnight”

[13] = system: Klebsiella pneumoniae HNR 869; assay: as above; type: cell-based; conditions: HNR869; Klebsiella pneumoniae HNR 869, Gram -; 10^6 cfu/ml; 18 hrs at 37 °C
Experimental: as §1, with “Overnight” for “Minimum inhibitory concentrations (MIC) of test compounds were determined by the twofold agar dilution method (Chemotherapy, 29(1), 76(1981)). Overnight”

[14] = system: Staphylococcuss aureus HPC 527; assay: as above; type: cell-based; conditions: Staphylococcuss aureus HPC 527, Gram +; 10^6 cfu/ml; 18 hrs at 37 °C
Experimental: as §1, with “Overnight” for “Minimum inhibitory concentrations (MIC) of test compounds were determined by the twofold agar dilution method (Chemotherapy, 29(1), 76(1981)). Overnight”

[15] = system: Pseudomonas aeruginosa HNR 1489; assay: as above; type: cell-based; conditions: HNR1489; Pseudomonas aeruginosa HNR 1489, Gram -; 10^6 cfu/ml; 18 hrs at 37 °C
Experimental: as §1, with “Overnight” for “Minimum inhibitory concentrations (MIC) of test compounds were determined by the twofold agar dilution method (Chemotherapy, 29(1), 76(1981)). Overnight”

[16] = system: Enterobacter cloacae HNR 1939; assay: as above; type: cell-based; conditions: HNR1939; Enterobacter cloacae HNR 1939, Gram -; 10^6 cfu/ml; 18 hrs at 37 °C
Experimental: as §1, with “Overnight” for “Minimum inhibitory concentrations (MIC) of test compounds were determined by the twofold agar dilution method (Chemotherapy, 29(1), 76(1981)). Overnight”

[17] = system: Acinetobacter calcoaceticus HNR 904; assay: as above; type: cell-based; conditions: HNR904; Acinetobacter calcoaceticus HNR 904, Gram -; 10^6 cfu/ml; 18 hrs at 37 °C
Experimental: as §1, with “Overnight” for “Minimum inhibitory concentrations (MIC) of test compounds were determined by the twofold agar dilution method (Chemotherapy, 29(1), 76(1981)). Overnight”

[18] = system: Serratia marcescens HNR 1767; assay: as above; type: cell-based; conditions: HNR1767; Serratia marcescens HNR 1767, Gram -; 10^6 cfu/ml; 18 hrs at 37 °C
Experimental: as §1, with “Overnight” for “Minimum inhibitory concentrations (MIC) of test compounds were determined by the twofold agar dilution method (Chemotherapy, 29(1), 76(1981)). Overnight”

[19] = system: Pseudomonas aeruginosa HNR 1472; assay: as above; type: cell-based; conditions: HNR1472; Pseudomonas aeruginosa HNR 1472, Gram -; 10^6 cfu/ml; 18 hrs at 37 °C
Experimental: as §1, with “Overnight” for “Minimum inhibitory concentrations (MIC) of test compounds were determined by the twofold agar dilution method (Chemotherapy, 29(1), 76(1981)). Overnight”

[20] = system: Acinetobacter calcoaceticus HNR 939; assay: as above; type: cell-based; conditions: HNR939; Acinetobacter calcoaceticus HNR 939, Gram -; 10^6 cfu/ml; 18 hrs at 37 °C
Experimental: as §1, with “Overnight” for “Minimum inhibitory concentrations (MIC) of test compounds were determined by the twofold agar dilution method (Chemotherapy, 29(1), 76(1981)). Overnight”

[21] = system: Serratia marcescens HNR 1792; assay: as above; type: cell-based; conditions: HNR1792; Serratia marcescens HNR 1792, Gram -; 10^6 cfu/ml; 18 hrs at 37 °C
Experimental: as §1, with “Overnight” for “Minimum inhibitory concentrations (MIC) of test compounds were determined by the twofold agar dilution method (Chemotherapy, 29(1), 76(1981)). Overnight”

[22] = system: Klebsiella pneumoniae HNR 858; assay: as above; type: cell-based; conditions: HNR858; Klebsiella pneumoniae HNR 858, Gram -; 10^6 cfu/ml; 18 hrs at 37 °C
Experimental: as §1, with “Overnight” for “Minimum inhibitory concentrations (MIC) of test compounds were determined by the twofold agar dilution method (Chemotherapy, 29(1), 76(1981)). Overnight”

[23] = system: Staphylococuss aureus FDA 209PJC-1; assay: MIC, twofold agar dilution method (standard laboratory strain); type: cell-based; conditions: Staphylococuss aureus FDA 209PJC-1, Gram +; 10^6 cfu/ml; 18 hrs at 37 °C
Experimental: as §1, with “Overnight” for “Minimum inhibitory concentrations (MIC) of test compounds were determined by the twofold agar dilution method (Chemotherapy, 29(1), 76(1981)). Overnight”

[24] = system: Pseudomonas aeruginosa IFO 3445; assay: as above; type: cell-based; conditions: IFO3445; Pseudomonas aeruginosa IFO 3445, Gram -; 10^6 cfu/ml; 18 hrs at 37 °C
Experimental: as §1, with “Overnight” for “Minimum inhibitory concentrations (MIC) of test compounds were determined by the twofold agar dilution method (Chemotherapy, 29(1), 76(1981)). Overnight”

[25] = system: Escherichia coli NIHJ JC-2; assay: as above; type: cell-based; conditions: NIHJJC2; Escherichia coli NIHJ JC-2, Gram -; 10^6 cfu/ml; 18 hrs at 37 °C
Experimental: as §1, with “Overnight” for “Minimum inhibitory concentrations (MIC) of test compounds were determined by the twofold agar dilution method (Chemotherapy, 29(1), 76(1981)). Overnight”

[26] = system: Enterobacter cloacae 963; assay: as above; type: cell-based; conditions: Enterobacter cloacae 963, Gram -; 10^6 cfu/ml; 18 hrs at 37 °C
Experimental: as §1, with “Overnight” for “Minimum inhibitory concentrations (MIC) of test compounds were determined by the twofold agar dilution method (Chemotherapy, 29(1), 76(1981)). Overnight”

[27] = system: Serratia marcescens IAM 1184; assay: as above; type: cell-based; conditions: IAM1184; Serratia marcescens IAM 1184, Gram -; 10^6 cfu/ml; 18 hrs at 37 °C
Experimental: as §1, with “Overnight” for “Minimum inhibitory concentrations (MIC) of test compounds were determined by the twofold agar dilution method (Chemotherapy, 29(1), 76(1981)). Overnight”

[28] = system: Male mice of ddY strain; assay: Convulsion inducing activity in combination with fenbufen; conditions: thirty minutes after fenbufen 100 mg/kg orally
Experimental: Male mice of ddY strain, 5 weeks old, were used. Fenbufen suspended in 0.5 % carboxymethylcellulose was administered orally at a dose of 100 mg/kg. After thirty minutes, test compounds suspended in 0.5 % carboxymethylcellulose were injected intraperitoneally (i.p.) at a dose of 100 mg/kg or 300 mg/kg.

MIC [1] | MIC [2] | MIC [3] | MIC [4] | MIC [5] | MIC [6] | MIC [7] | MIC [8] | MIC [9] | MIC [10] | MIC [11] | MIC [12] | MIC [13] | MIC [14] | MIC [15] | MIC [16] | MIC [17] | MIC [18] | MIC [19] | MIC [20] | SMILES | also measured
0.025 µg/mL (≈ 0.0651 µM) | 1.56 µg/mL (≈ 4.06 µM) | 0.2 µg/mL (≈ 0.521 µM) | 0.1 µg/mL (≈ 0.261 µM) | 1.56 µg/mL (≈ 4.06 µM) | 0.1 µg/mL (≈ 0.261 µM) | 0.78 µg/mL (≈ 2.03 µM) | 1.56 µg/mL (≈ 4.06 µM) | 1.56 µg/mL (≈ 4.06 µM) | 6.25 µg/mL (≈ 16.3 µM) | 0.05 µg/mL (≈ 0.13 µM) | 0.39 µg/mL (≈ 1.02 µM) | 0.78 µg/mL (≈ 2.03 µM) | 0.05 µg/mL (≈ 0.13 µM) | 0.2 µg/mL (≈ 0.521 µM) | 0.1 µg/mL (≈ 0.261 µM) | 12.5 µg/mL (≈ 32.6 µM) | 6.25 µg/mL (≈ 16.3 µM) | 3.13 µg/mL (≈ 8.15 µM) | 0.78 µg/mL (≈ 2.03 µM) | CC1Sc2c(C(=O)O)c(=O)c3cc(F)c(N4CC[C@@H](N)C4)c(Cl)c3n21 (single isomer, unassigned) [Example 17] | MIC [21]: 1.56 µg/mL (≈ 4.06 µM); MIC [22]: 0.2 µg/mL (≈ 0.521 µM); MIC [23]: 0.025 µg/mL (≈ 0.0651 µM); MIC [24]: 0.1 µg/mL (≈ 0.261 µM); MIC [25]: 0.025 µg/mL (≈ 0.0651 µM); MIC [26]: 0.05 µg/mL (≈ 0.13 µM); MIC [27]: 0.05 µg/mL (≈ 0.13 µM)
≤ 0.0015 µg/mL | 0.78 µg/mL (≈ 2.12 µM) | 0.1 µg/mL (≈ 0.272 µM) | 0.025 µg/mL (≈ 0.068 µM) | 1.56 µg/mL (≈ 4.25 µM) | 0.05 µg/mL (≈ 0.136 µM) | 0.39 µg/mL (≈ 1.06 µM) | 1.56 µg/mL (≈ 4.25 µM) | 0.78 µg/mL (≈ 2.12 µM) | 3.13 µg/mL (≈ 8.52 µM) | 0.012 µg/mL (≈ 0.0327 µM) | 0.39 µg/mL (≈ 1.06 µM) | 0.39 µg/mL (≈ 1.06 µM) | 0.012 µg/mL (≈ 0.0327 µM) | 0.05 µg/mL (≈ 0.136 µM) | 0.05 µg/mL (≈ 0.136 µM) | 3.13 µg/mL (≈ 8.52 µM) | 3.13 µg/mL (≈ 8.52 µM) | 1.56 µg/mL (≈ 4.25 µM) | 0.78 µg/mL (≈ 2.12 µM) | CC1Sc2c(C(=O)O)c(=O)c3cc(F)c(N4CC[C@H](N)C4)c(F)c3n21 (single isomer, unassigned) [Example 18] | Number of convulsion induced / Number of animals ([28]; 100 mg/kg (i.p.)): 0 / 6; Number of convulsion induced / Number of animals ([28]; 300 mg/kg (i.p.)): 0 / 6; MIC [21]: 0.78 µg/mL (≈ 2.12 µM); MIC [22]: 0.05 µg/mL (≈ 0.136 µM); MIC [23]: 0.006 µg/mL (≈ 0.0163 µM); MIC [24]: 0.025 µg/mL (≈ 0.068 µM); MIC [25]: 0.006 µg/mL (≈ 0.0163 µM); MIC [26]: 0.006 µg/mL (≈ 0.0163 µM); MIC [27]: 0.012 µg/mL (≈ 0.0327 µM)
